According to PubChem BioAssay (NCI):
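Step 1: Grow cells in 96-well plates. Step 2: Expose to compound for 48 hours at 5 concentrations. Step 3: Interpolate endpoints linearly; if unreached, use highest concentration. TGI: concentration producing complete growth inhibition.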

Key:
Experiment in all cases: inhibition of tumour cell growth, NCI panel, 48 h
[1] = test system: A498 renal
[2] = test system: A549 NSCLC
[3] = test system: HL-60(TB) leukemia
[4] = test system: MCF7 breast
[5] = test system: MDA-MB-231 breast
[6] = test system: NCI-H23 lung
[7] = test system: OVCAR-4 ovarian
[8] = test system: SF-268 CNS
[9] = test system: SN12C renal
[10] = test system: U251 CNS

With `O=c1c2sc(=S)n(-c3ccc(F)cc3)c2ncn1/N=C/c1ccc(F)cc1F` the TGI [1] was 58.2 µM, the TGI [2] was > 100 µM and the TGI [3] was > 100 µM. For the same compound, the TGI [4] was > 100 µM, the TGI [5] was 53.4 µM and the TGI [6] was > 100 µM. For the same compound, the TGI [7] was 46.8 µM, the TGI [8] was 43.1 µM and the TGI [9] was > 100 µM. For the same compound, the TGI [10] was 52 µM.
With `[O-][n+]1ccccc1Sc1nc(Sc2cccc[n+]2[O-])nc(Sc2cccc[n+]2[O-])n1` the TGI [1] was 8.37 µM, the TGI [2] was 13.9 µM and the TGI [3] was > 100 µM. It also gave a TGI [4] of 2.47 µM, a TGI [5] of 2.73 µM and a TGI [6] of 3.87 µM. The TGI [7] was 4.74 µM, the TGI [8] was 10.1 µM and the TGI [9] was 3.48 µM. The TGI [10] was 3.3 µM.
For `N=C(N)SCc1ccc2c(c1)Sc1ccccc1O2`, the TGI [1] was 52.3 µM, the TGI [2] was 23 µM and the TGI [3] was > 63 µM. It also gave a TGI [4] of 13.5 µM, a TGI [5] of 45.2 µM and a TGI [6] of 21.5 µM. For the same compound, the TGI [7] was 18.1 µM, the TGI [8] was 27.8 µM and the TGI [9] was 46.9 µM. For the same compound, the TGI [10] was > 71.4 µM.
`Cc1cc(N(CCOS(C)(=O)=O)CCOS(C)(=O)=O)ccc1C=O` was tested, and the TGI [1] was 7.29 µM, the TGI [2] was 45.7 µM and the TGI [3] was > 100 µM. The TGI [4] was 32 µM, the TGI [5] was 94.6 µM and the TGI [6] was 36.9 µM. For the same compound, the TGI [7] was 45.3 µM, the TGI [8] was > 100 µM and the TGI [9] was 11.6 µM. The TGI [10] was 67.4 µM.
For `COc1cccc2c(=O)oc(-c3ccc(C(C)(C)C)cc3)nc12`, the TGI [1] was > 100 µM, the TGI [2] was > 100 µM and the TGI [3] was 44 µM. For the same compound, the TGI [4] was > 100 µM, the TGI [5] was > 100 µM and the TGI [6] was > 100 µM. The TGI [7] was > 100 µM, the TGI [8] was > 100 µM and the TGI [9] was > 100 µM. The TGI [10] was > 100 µM.
Compound `CCN(CC)/C(SCc1ccccc1)=C(\C(Cl)=C(Cl)Cl)[N+](=O)[O-]` has a TGI [1] of 26.9 µM, a TGI [2] of 38.1 µM and a TGI [3] of 38.9 µM. It also gave a TGI [4] of 32.1 µM, a TGI [5] of 49.7 µM and a TGI [6] of 49.6 µM. The TGI [7] was 44.6 µM, the TGI [8] was 46.6 µM and the TGI [9] was 42.4 µM. The TGI [10] was 49 µM.
`CN(C)c1ccc(C(=N/N=C2\C(=O)Nc3ccccc32)c2ccc(N(C)C)cc2)cc1` showed a TGI [1] of 16.8 µM, a TGI [2] of 43.2 µM and a TGI [3] of 7.4 µM. For the same compound, the TGI [4] was 2.72 µM, the TGI [5] was 13.1 µM and the TGI [6] was 31.1 µM. The TGI [7] was > 32.6 µM, the TGI [8] was 29.2 µM and the TGI [9] was 46.8 µM. The TGI [10] was 15.5 µM.
In the case of `CCCCCCOc1ccc(C(=O)NOC)cc1`, the TGI [1] is reported as > 100 µM, the TGI [2] is reported as > 100 µM and the TGI [3] is reported as 86.8 µM. The TGI [4] was > 100 µM, the TGI [5] was > 100 µM and the TGI [6] was > 100 µM. The TGI [7] was > 100 µM, the TGI [8] was > 100 µM and the TGI [9] was > 100 µM. The TGI [10] was > 100 µM.
`Cc1cn(C2CC(O)C(CO)O2)c(=O)[nH]c1=O` (stereo not given) was tested, and the TGI [1] was > 5000 µM, the TGI [2] was 4450 µM and the TGI [3] was > 5000 µM. The TGI [4] was > 4300 µM, the TGI [5] was > 5000 µM and the TGI [6] was > 4530 µM. The TGI [7] was > 4640 µM, the TGI [8] was > 5000 µM and the TGI [9] was > 4240 µM. The TGI [10] was > 5000 µM.
`COC(=O)C1CCC(=O)N1C(c1ccc(OC)cc1)c1ccc2c(c1)OCO2` (stereo not given) was tested, and the TGI [1] was > 100 µM, the TGI [2] was > 100 µM and the TGI [3] was 91.2 µM. The TGI [4] was > 100 µM, the TGI [5] was > 100 µM and the TGI [6] was > 100 µM. For the same compound, the TGI [7] was > 100 µM, the TGI [8] was > 100 µM and the TGI [9] was > 100 µM. For the same compound, the TGI [10] was > 100 µM.
For `O=C(O)CCC(=O)OC1N=C(c2ccccc2Cl)c2cc([N+](=O)[O-])ccc2NC1=O` (stereo not given), the TGI [1] was > 100 µM, the TGI [2] was > 100 µM and the TGI [3] was > 100 µM. For the same compound, the TGI [4] was > 100 µM, the TGI [5] was > 100 µM and the TGI [6] was > 100 µM. The TGI [7] was > 100 µM, the TGI [8] was > 100 µM and the TGI [9] was > 100 µM. The TGI [10] was > 100 µM.
`CC(=N/N=C/c1ccccn1)/C(C)=N/N=C(C)/C(C)=N/N=C(C)/C(C)=N/N=C(C)/C(C)=N\N=C\c1ccccn1` was tested, and the TGI [1] was > 100 µM, the TGI [2] was > 100 µM and the TGI [3] was > 100 µM. The TGI [4] was > 100 µM, the TGI [5] was > 100 µM and the TGI [6] was > 100 µM. For the same compound, the TGI [7] was > 100 µM, the TGI [8] was > 100 µM and the TGI [9] was > 100 µM. The TGI [10] was > 100 µM.
In the case of `CCOC(=O)c1cc2nc3ccccc3c(=O)n2c2ccccc12`, the TGI [1] is reported as > 10 µM, the TGI [2] is reported as > 10 µM and the TGI [3] is reported as > 10 µM. For the same compound, the TGI [4] was > 10 µM, the TGI [5] was > 10 µM and the TGI [6] was > 10 µM. For the same compound, the TGI [7] was > 10 µM, the TGI [8] was > 10 µM and the TGI [9] was > 10 µM. For the same compound, the TGI [10] was > 10 µM.
`CN1CSC(=S)N(c2c3ccccc3nc3ccc(Br)cc23)C1` showed a TGI [1] of 27 µM, a TGI [2] of 21.6 µM and a TGI [3] of 27.2 µM. For the same compound, the TGI [4] was 24.1 µM, the TGI [5] was 22.9 µM and the TGI [6] was 23.5 µM. For the same compound, the TGI [7] was 25.7 µM, the TGI [8] was 27.4 µM and the TGI [9] was 18.8 µM. It also gave a TGI [10] of 20.4 µM.
